# In article PMC8799644, “Decisive role of water and protein dynamics in residence time of p38α MAP kinase inhibitors” (Nature Communications, 2022):
# pIC50: −log10 of the molar value. “And” between values parts separate entries of the source, which are not always exact repeats. Equal entries are not always repeated. Where two headings read alike, the source gives them in different places.
# Experiments:
# p38α MAP kinase = p38α MAP kinase (Homo sapiens, UniProt Q16539); assay: ADP-Glo luminescence kinase assay (isolated enzyme); format: biochemical
# Procedure: IC50 determinations were performed using the luminescence-based ADP-Glo^TM assay by Promega, which measures kinase activity based on ADP formation. All required reagents were prepared according to manufacturer’s protocol. […] The kinase reaction was started by adding the substrate and ATP. After 60 min incubation time, the reaction was terminated by adding ADP-Glo^TM reagent and an incubation time of 60 min. At last, ADP-Glo TM kinase detection reagent was added and incubated for 30 min. All reactions were carried out on a plate shaker at room temperature. […] The ratio between kinase reaction, ADP-Glo TM reagent and ADP-Glo TM kinase detection reagent was 1:1:2. The positive control consisted of p38α MAP kinase, substrate and buffer. The assay was performed in triplicates. The negative control consisted of all kinase reaction components without enzyme. Luminescence was detected using the plate reader FilterMax F5 by Molecular Devices with subsequent data analysis using GraphPad Prism version 7.0.0. for Windows (GraphPad Software, San Diego, CA, USA).
# p38α MAPK [1] = target: T1, p38α MAPK (Homo sapiens, UniProt Q16539); assay: HotSpot radiometric kinase assay (Reaction Biology); format: biochemical; conditions: n = 1; 10 μM ATP; read-out: IC50 isolated enzyme p38α MAPK HotSpot
# Procedure: Hotspot^TM radiometric assay[49] was conducted by Reaction Biology (Reaction Biology Corp., Malvern, PA, USA). In brief, five-dose singleton measurements were conducted starting from 1 μM compound concentration with a ten-fold serial dilution (lowest concentration of 0.1 nM). ATP concentration of 10 μM was used in the assay.
# p38α MAPK [2] = target: T1, p38α MAPK; assay: Fluorescence polarization (Transcreener ADP) jump-dilution target residence time; format: biochemical; conditions: for millipolarization mP: Compound 1 run, replicas 1-3
# p38α MAPK [3] = target: T1, p38α MAPK; conditions: cited from earlier work
# p38α MAPK [4] = target: T1, p38α MAPK; conditions: n = 2; cited from earlier work
# p38α MAPK [5] = target: T1, p38α MAPK; assay: Cell-based eGFP-MK2 translocation assay, DLD1_eGFP-MK2 cells; parameters: endogenous in cells
# Text: (§1) For optical analysis, cells were fixed using 4% PFA/PBS following DAPI staining and subjected to automated high content analysis (HCA) image acquisition using an Image Xpress micro XL microscope (Molecular Devices). 40× Plan Apo objective was used to acquire FITC and DAPI signals at nine sites per well. MetaXpress® Custom Module Editor Software (64 bit, 6.2.3.733, Molecular Devices) was trained for automated image analysis. DAPI signal was used to define nuclear region of interest (ROI) and DAPI-negative cytoplasmic ring for respective cytoplasmic ROI. Non-cellular FITC background signals were subtracted from defined ROIs. Nuclear to cytoplasmic ratios were calculated from cellular fluorescence intensities of eGFP-MK2 reporter within defined ROIs. Cells with ratios within the 10–90 percentiles of all measured cells were taken into account.
# Supplementary Figure 1. Cell-based eGFP-MK2 translocation assay: DLD1 cell line.
# (A) Schematic overview of the cell-based eGFP-MK2 translocation assay. Active p38a MAPK phosphorylates its nuclear substrate MapKap2 (MK2) which leads to the exposure of the nuclear export signal and results in a cytoplasmic relocalization of MK2. Using a fluorescently labelled eGFP-MK2 as reporter, nuclear-cytoplasmic translocation can be used to monitor p38a MAPK […]
# (B) Human DLD1 cell line stably […]
# expressing eGFP-MK2 reporter under different treatment conditions.
# (1 picture or pasted object on this page, not shown here)
# Shown are microscopic images which were subjected to automated high content analysis to measure and calculate nuclear to cytoplasmic ratios of eGFP-MK2 signals providing the basis to evaluate inhibitory potency of p38a MAPK modulating […]
# 3 independent biological replicates. Scale bar: 50 µm. (C) Inhibition of eGFP-MK2 translocation by the compounds in DLD1_eGFP-MK2 cells. Normalized fluorescence (Fl) intensity ratio of […]
# respectively. […] Data are presented as mean ± standard deviation (SD) of three biological replicates. Source data are provided as a Source Data […]
# (§2) Supplementary Figure 2. Cell-based eGFP-MK2 translocation assay: HCT116 cell line.
# (A) Human HCT116 cell line stably expressing eGFP-MK2 reporter under different treatment
# p38α MAPK [6] = target: T1, p38α MAPK; assay: Cell-based eGFP-MK2 translocation assay, HCT116_eGFP-MK2 cells; parameters: endogenous in cells
# Text: as §1, with “account. […]” for “account.”
# as §2
# (A) Human HCT116 cell line stably expressing eGFP-MK2 reporter under different treatment […]
# nucleus. Upon activation of the MAPK/p38 pathway, eGFP-MK2 is translocated to the cytoplasm […]
# microscopic images which were subjected to automated high content analysis to measure and calculate nuclear to cytoplasmic ratios of eGFP-MK2 signals providing the basis to evaluate inhibitory potency of p38a MAPK modulating compounds. […]
# sites that were imaged per condition for each of 3 independent biological replicates. Scale bar:
# Normalized fluorescence (Fl) intensity ratio of nucleus/cytoplasm.
# Data are presented as mean ± SD of three biological replicates. […]
# p38α MAP kinase, sequence (Q16539 whole entry): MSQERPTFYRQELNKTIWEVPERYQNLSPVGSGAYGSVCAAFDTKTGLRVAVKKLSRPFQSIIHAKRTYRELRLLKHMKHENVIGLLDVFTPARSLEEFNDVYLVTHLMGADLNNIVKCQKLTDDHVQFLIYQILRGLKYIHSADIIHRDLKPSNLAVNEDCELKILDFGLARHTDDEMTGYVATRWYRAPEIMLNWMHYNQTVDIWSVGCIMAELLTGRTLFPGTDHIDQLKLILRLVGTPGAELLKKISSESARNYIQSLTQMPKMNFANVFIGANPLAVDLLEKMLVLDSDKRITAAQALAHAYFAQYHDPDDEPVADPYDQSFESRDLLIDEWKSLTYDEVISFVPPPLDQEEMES
# T1 sequence (Q16539 whole entry): as above
smiles,measurement,setting,value
O=C(NCCN1CCOCC1)c1ccc2c(c1)C(=O)c1ccc(Nc3ccc(F)cc3F)cc1CC2 [Compound 1],pIC50,"p38α MAP kinase; mean ± SD, 150 μM ATP, read-out: IC50 isolated enzyme p38α MAPK ADP-Glo (mean)",7.50 and 7.51
same,pIC50,"p38α MAP kinase; single experiments of source data, read-out: IC50 ADP Glo, individual determination",7.46 and 7.40 and 7.72
same,pIC50,p38α MAPK [1],> 9.00
same,millipolarization mP,p38α MAPK [2]; Time 15 min,250.23 mP and 238.61 mP and 252.02 mP
same,millipolarization mP,p38α MAPK [2]; Time 20 min,235.80 mP and 229.96 mP and 227.02 mP
same,millipolarization mP,p38α MAPK [2]; Time 25 min,216.96 mP and 215.61 mP and 220.53 mP
same,millipolarization mP,p38α MAPK [2]; Time 30 min,204.83 mP and 208.80 mP and 213.25 mP
same,millipolarization mP,p38α MAPK [2]; Time 35 min,199.40 mP and 197.40 mP and 204.19 mP
same,millipolarization mP,p38α MAPK [2]; Time 40 min,190.24 mP and 185.07 mP and 187.77 mP
same,millipolarization mP,p38α MAPK [2]; Time 45 min,188.70 mP and 189.13 mP and 187.22 mP
same,millipolarization mP,p38α MAPK [2]; Time 50 min,189.84 mP and 186.39 mP and 191.23 mP
same,millipolarization mP,p38α MAPK [2]; Time 55 min,181.96 mP and 176.31 mP and 180.38 mP
same,millipolarization mP,p38α MAPK [2]; Time 60 min,189.85 mP and 181.69 mP and 188.39 mP
same,millipolarization mP,p38α MAPK [2]; Time 65 min,179.72 mP and 178.04 mP and 185.39 mP
same,millipolarization mP,p38α MAPK [2]; Time 70 min,177.53 mP and 176.90 mP and 187.97 mP
same,millipolarization mP,p38α MAPK [2]; Time 75 min,176.40 mP and 178.56 mP and 178.94 mP
same,millipolarization mP,p38α MAPK [2]; Time 80 min,170.47 mP and 176.86 mP and 179.41 mP
same,millipolarization mP,p38α MAPK [2]; Time 85 min,174.74 mP and 171.47 mP and 178.98 mP
same,millipolarization mP,p38α MAPK [2]; Time 90 min,181.04 mP and 173.23 mP and 180.81 mP
same,millipolarization mP,p38α MAPK [2]; Time 95 min,176.14 mP and 169.30 mP and 175.95 mP
same,millipolarization mP,p38α MAPK [2]; Time 100 min,170.48 mP and 168.26 mP and 169.78 mP
same,millipolarization mP,p38α MAPK [2]; Time 105 min,171.74 mP and 175.00 mP and 171.83 mP
same,millipolarization mP,p38α MAPK [2]; Time 110 min,170.01 mP and 167.74 mP and 170.08 mP
same,millipolarization mP,p38α MAPK [2]; Time 115 min,166.92 mP and 166.97 mP and 168.10 mP
same,millipolarization mP,p38α MAPK [2]; Time 120 min,173.62 mP and 170.72 mP and 174.62 mP
same,millipolarization mP,p38α MAPK [2]; Time 125 min,170.41 mP and 162.47 mP and 172.42 mP
same,millipolarization mP,p38α MAPK [2]; Time 130 min,163.64 mP and 172.89 mP and 166.09 mP
same,millipolarization mP,p38α MAPK [2]; Time 135 min,165.07 mP and 173.17 mP and 167.48 mP
same,millipolarization mP,p38α MAPK [2]; Time 140 min,163.17 mP and 162.11 mP and 161.18 mP
same,millipolarization mP,p38α MAPK [2]; Time 145 min,163.48 mP and 161.58 mP and 158.43 mP
same,millipolarization mP,p38α MAPK [2]; Time 150 min,162.36 mP and 163.56 mP and 167.43 mP
same,millipolarization mP,p38α MAPK [2]; Time 155 min,167.52 mP and 168.31 mP and 165.22 mP
same,millipolarization mP,p38α MAPK [2]; Time 160 min,157.97 mP and 163.71 mP and 167.13 mP
same,millipolarization mP,p38α MAPK [2]; Time 170 min,171.90 mP and 157.15 mP and 163.48 mP
same,millipolarization mP,p38α MAPK [2]; Time 175 min,163.57 mP and 163.80 mP and 163.61 mP
same,millipolarization mP,p38α MAPK [2]; Time 180 min,166.27 mP
same,TRT,p38α MAPK [2]; individual replicas 1-3,317 s and 109 s and 270 s
same,TRT [sec] mean,p38α MAPK [2]; mean of 3 replicas,232 s
same,residence time,"p38α MAPK [2]; mean ± SD, n = 3, 1/koff, jump dilution 1:100, 40 μM ATP, ATF2, read-out: Target residence time FP (converted)",3.87 min
same,pIC50,"p38α MAPK [3]; mean ± SD, n = 3, read-out: IC50 isolated enzyme p38α MAPK ELISA (mean)",8.47
same,pIC50,"p38α MAPK [3]; single experiments of source data, read-out: IC50 ELISA, individual determination",8.45 and 8.46
same,Target residence time SPR,p38α MAPK [4],36 s
same,norm. FI (nucleus/ cytoplasm),"p38α MAPK [5]; DLD1_eGFP-MK2, conc. 100 pM",0.794
same,norm. FI (nucleus/ cytoplasm),"p38α MAPK [5]; DLD1_eGFP-MK2, conc. 1e-9 M",0.8106
same,norm. FI (nucleus/ cytoplasm),"p38α MAPK [5]; DLD1_eGFP-MK2, conc. 3e-9 M",0.8345
same,norm. FI (nucleus/ cytoplasm),"p38α MAPK [5]; DLD1_eGFP-MK2, conc. 3e-8 M",0.9192
same,norm. FI (nucleus/ cytoplasm),"p38α MAPK [5]; DLD1_eGFP-MK2, conc. 1e-7 M",0.9569
same,norm. FI (nucleus/ cytoplasm),"p38α MAPK [5]; DLD1_eGFP-MK2, conc. 1e-6 M",1.002
same,norm. FI (nucleus/ cytoplasm),"p38α MAPK [5]; DLD1_eGFP-MK2, conc. 1e-5 M",1.014
same,norm. FI (nucleus/ cytoplasm),"p38α MAPK [5]; DLD1_eGFP-MK2, conc. 1e-5 M (last column, after 1e-10)",0.8162
same,pIC50,"p38α MAPK [5]; DLD1_eGFP-MK2 cells, 1 h compound, n = 3, read-out: IC50 cell-based MK2 translocation DLD1",7.59
same,norm. FI (nucleus/ cytoplasm),"p38α MAPK [6]; HCT116_eGFP-MK2, conc. 100 pM",0.8572
same,norm. FI (nucleus/ cytoplasm),"p38α MAPK [6]; HCT116_eGFP-MK2, conc. 1e-9 M",0.8754
same,norm. FI (nucleus/ cytoplasm),"p38α MAPK [6]; HCT116_eGFP-MK2, conc. 3e-9 M",0.8746
same,norm. FI (nucleus/ cytoplasm),"p38α MAPK [6]; HCT116_eGFP-MK2, conc. 1e-8 M",0.937
same,norm. FI (nucleus/ cytoplasm),"p38α MAPK [6]; HCT116_eGFP-MK2, conc. 3e-8 M",0.9809
same,norm. FI (nucleus/ cytoplasm),"p38α MAPK [6]; HCT116_eGFP-MK2, conc. 1e-7 M",1.0322
same,norm. FI (nucleus/ cytoplasm),"p38α MAPK [6]; HCT116_eGFP-MK2, conc. 1e-6 M",1.03
same,norm. FI (nucleus/ cytoplasm),"p38α MAPK [6]; HCT116_eGFP-MK2, conc. 1e-5 M",1.052
same,norm. FI (nucleus/ cytoplasm),"p38α MAPK [6]; HCT116_eGFP-MK2, conc. 1e-5 M (last column, after 1e-10)",0.8753
same,pIC50,"p38α MAPK [6]; HCT116_eGFP-MK2 cells, 1 h compound, n = 3, read-out: IC50 cell-based MK2 translocation HCT116",7.83
